The text below walks through data of the OligoGym collection.

After the bases stand the sugars from the 5' end (letter, count) and the backbone: PS all phosphorothioate, else s phosphorothioate and o phosphodiester by linkage. Methylation of C is not given here. e = 2'-O-(2-methoxyethyl) (MOE); k = constrained ethyl (cEt); d = 2'-deoxy (DNA); m = 2'-O-methyl

The target of one data set is HSD17B13. The following applies: ASO, HepaRG, 0.02 µM.
For the sequence “TTCTTATGTAATAGCC (sugars kkdddddddddkekek, PS)”, the target mRNA inhibition was 8%.
Take “TTGATATTCTGTGGCA (sugars k3 d9 k3 e1, PS)”: the target mRNA inhibition was 0%.

Staying with this data set, now noted: ASO, HepaRG, 0.078 µM.
For the sequence “TTCTTATGTAATAGCC (sugars kkdddddddddkekek, PS)”, the target mRNA inhibition was determined as 28%.
Take “TTGATATTCTGTGGCA (sugars k3 d9 k3 e1, PS)”: the target mRNA inhibition came out at 0%.

The data set is the same for the next values; noted with them: ASO, HepaRG, 0.313 µM.
Turning to “TTCTTATGTAATAGCC (sugars kkdddddddddkekek, PS)”, the target mRNA inhibition stood at 52%.
As for “TTGATATTCTGTGGCA (sugars k3 d9 k3 e1, PS)”, the target mRNA inhibition was 25%.

Staying with this data set, now noted: ASO, HepaRG, 1 µM.
For the sequence “TTCTTATGTAATAGCC (sugars kkdddddddddkekek, PS)”, the target mRNA inhibition turned out to be 78%.
Consider TTCTTGAGAGTGATTG (sugars k3 d10 k3, PS), for which the target mRNA inhibition was 52%.
On the same count and under the same terms, the result for “TTCTUATGTAATAGCC (sugars k3 d1 m1 d8 k3, PS)” reads 66%; that for TTGAACAGTCTTAAAC (sugars k3 d10 k3, PS), 33%.
As to TTGAACCGTATTCCCA (sugars k3 d10 k3, PS), the target mRNA inhibition was determined as 76%.
On the same count and under the same terms, the figure for “TTGAATAGCAAGCCAA (sugars kkdddddddddkekek, PS)” is 27%; for TTGACTAAGGAGCTAG (sugars k3 d10 k3, PS) it is 20%; for “TTGACTGCTGCTAGTG (sugars k3 d9 k3 e1, PS)” it is 50%.
With TTGACTGCTGCTAGTG (sugars k3 d10 k3, PS), the target mRNA inhibition is 30%.
“TTGAGATAAAGCTGCC (sugars k3 d1 m1 d8 k3, PS)”: the target mRNA inhibition was 51%.
In the case of TTGAGATAAAGCTGCC (sugars k3 d10 k3, PS), the target mRNA inhibition came out at 49%.
As to TTGAGCCTAAAATTGT (sugars k3 d10 k3, PS), the target mRNA inhibition stood at 36%.
With “TTGAGTAGTGTAAGCT (sugars k3 d1 m1 d8 k3, PS)”, the target mRNA inhibition worked out at 35%.
As to TTGAGTAGTGTAAGCT (sugars k3 d10 k3, PS), the target mRNA inhibition came to 52%.
Turning to “TTGAGTAGTGTAAGCT (sugars kkdddddddddkekek, PS)”, the target mRNA inhibition stood at 29%.
As for “TTGAGTTCTCCACTGC (sugars k3 d9 k3 e1, PS)”, the target mRNA inhibition was found to be 26%.
For “TTGAGTTCTCCACTGC (sugars kkdddddddddkekek, PS)”, the target mRNA inhibition is 20%.
“TTGATATTCTGTGGCA (sugars k3 d9 k3 e1, PS)”: the target mRNA inhibition was 76%.
Take “TTGATATTCTGTGGCA (sugars kkdddddddddkekek, PS)”: the target mRNA inhibition was found to be 55%.
Still for that read-out and setting: the result for TTGATGTAGTGGGAGT (sugars k3 d10 k3, PS) reads 68%; that for “TTGAUCTCTTAGCTGT (sugars k3 d1 m1 d8 k3, PS)”, 50%; that for TTGCAAAATGTGATGC (sugars k3 d10 k3, PS), 75%.
TTGCAATGAGATTACC (sugars k3 d10 k3, PS): the target mRNA inhibition is 29%.
With TTGCACCGTTTTGGGC (sugars k3 d10 k3, PS), the target mRNA inhibition came to 45%.
As to “TTGCAGAAATTCACCT (sugars k3 d9 k3 e1, PS)”, the target mRNA inhibition came out at 29%.
In the case of TTGCAGTTATTAGAAG (sugars k3 d10 k3, PS), the target mRNA inhibition was found to be 13%.
In the case of “TTGGAATGCTACTTGA (sugars k3 d9 k3 e1, PS)”, the target mRNA inhibition was 56%.
For TTGGACATGAAGATTA (sugars k3 d10 k3, PS), the target mRNA inhibition is 18%.
Same read-out and setting: the figure for “TTGGTAAGTATTCCAT (sugars kkdddddddddkekek, PS)” is 13%; for TTGTATTTCGCTACTG (sugars k3 d10 k3, PS) it is 58%; for “TTTAAAATAGAGTCGG (sugars k3 d1 m1 d8 k3, PS)” it is 77%.
As for TTTAACTACCCTCACA (sugars k3 d10 k3, PS), the target mRNA inhibition amounted to 0%.
With TTTAGTTGGTAGCTTG (sugars k3 d10 k3, PS), the target mRNA inhibition is 63%.
TTTATAACTACAAGAG (sugars k3 d10 k3, PS): the target mRNA inhibition is 38%.
Take TTTATGTAAGCACAGA (sugars k3 d10 k3, PS): the target mRNA inhibition amounted to 70%.
In the case of TTTCAGATCCCGTTCT (sugars k3 d10 k3, PS), the target mRNA inhibition stood at 45%.
TTTCTCTCCATCATCG (sugars k3 d10 k3, PS): the target mRNA inhibition turned out to be 27%.
For the sequence TTTCTTATGTAATAGC (sugars k3 d10 k3, PS), the target mRNA inhibition came to 76%.
The same measure, in the same setting: the result for TTTCTTATTGGTAAGT (sugars k3 d10 k3, PS) reads 44%.
On the same count and under the same terms, the figure for TTTGGTGAACCCAGTA (sugars k3 d10 k3, PS) is 34%.
Same read-out and setting: the result for TTTTAATACGACTTCC (sugars k3 d10 k3, PS) reads 57%; that for TTTTATTATGAGGATC (sugars k3 d10 k3, PS), 18%.
Turning to TTTTCGGCACTCAGCT (sugars k3 d10 k3, PS), the target mRNA inhibition is 13%.
As to TTTTGTCCACCTTTAA (sugars k3 d10 k3, PS), the target mRNA inhibition is 68%.

The data set is the same for the next values; noted with them: ASO, HepaRG, 1.25 µM.
For the sequence “TTCTTATGTAATAGCC (sugars kkdddddddddkekek, PS)”, the target mRNA inhibition was 79%.
Same read-out and setting: the result for “TTGATATTCTGTGGCA (sugars k3 d9 k3 e1, PS)” reads 51%.

Still in this data set, the particulars now being: ASO, HepaRG, 5 µM.
For the sequence “TTCTTATGTAATAGCC (sugars kkdddddddddkekek, PS)”, the target mRNA inhibition worked out at 82%.
As to “TTGATATTCTGTGGCA (sugars k3 d9 k3 e1, PS)”, the target mRNA inhibition was 55%.

A further data set has as its target IRF4. To be noted: ASO, MM.1R, 1 µM.
With AAAACAGCCGCCGGCA (sugars k3 d10 k3, PS), the target mRNA inhibition is -9%.
For the sequence AAACTTGGGTCACTTA (sugars k3 d10 k3, PS), the target mRNA inhibition turned out to be 5%.
AAAGAGCTGGTAGGTC (sugars k3 d10 k3, PS): the target mRNA inhibition is -35%.
As to AAATCACGAGGTTGCC (sugars k3 d10 k3, PS), the target mRNA inhibition was determined as 21%.

The data set is the same for the next values; noted with them: ASO, SK-MEL-28, 4 µM.
On to AAAATATAACGGTGTT (sugars k3 d10 k3, PS), for which the target mRNA inhibition is 31%.
As to AAAATATCGCCCATGA (sugars k3 d10 k3, PS), the target mRNA inhibition turned out to be 41%.
With AAACACAGTCTGCTGC (sugars k3 d10 k3, PS), the target mRNA inhibition came out at 35%.
AAACAGGAACTGACCT (sugars k3 d10 k3, PS): the target mRNA inhibition worked out at 20%.
Regarding AAACGGACTGGAACAT (sugars k3 d10 k3, PS), the target mRNA inhibition is 7%.
For AAAGAGCGCATTTCAG (sugars k3 d10 k3, PS), the target mRNA inhibition was determined as 6%.
Same read-out and setting: the figure for AAAGAGCTTGCAGGTC (sugars k3 d10 k3, PS) is 37%; for AAAGAGGCACCCTCCT (sugars k3 d10 k3, PS) it is -38%; for AAAGAGGGTCACAGGT (sugars k3 d10 k3, PS) it is 34%.
On the same count and under the same terms, the result for AAAGATACAAAACGGA (sugars k3 d10 k3, PS) reads 38%.
As for AAAGGTTCCTGTCACC (sugars k3 d10 k3, PS), the target mRNA inhibition is 38%.
Consider AAAGTAACTGACACGC (sugars k3 d10 k3, PS), for which the target mRNA inhibition was determined as 67%.
On the same count and under the same terms, the figure for AAAGTCCCATCGAATC (sugars k3 d10 k3, PS) is 13%; for AAATACGACAACTTTC (sugars k3 d10 k3, PS) it is 21%; for AAATGAGTCGGTCACT (sugars k3 d10 k3, PS) it is 55%.
On the same count and under the same terms, the figure for AAATTAAAGAGCGCAT (sugars k3 d10 k3, PS) is 13%.
On to AACACCTGATCTTGCT (sugars k3 d10 k3, PS), for which the target mRNA inhibition was -10%.
As to AACAGAGACGCGGTGA (sugars k3 d10 k3, PS), the target mRNA inhibition is 10%.
